In US12606561B2, “Substituted pyrazolo[1,5-a][1,3,5]triazines as CDK inhibitors” (QURIENT CO., LTD., priority 2018, dated 2026):

Columns and labels:
Type in all cases: cell-based
OVCAR-3 = OVCAR-3 viability assay (CellTiter-Glo, 72 hours); conditions: Homo sapiens; OVCAR-3 cells
Method in brief: (§1)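 Cells grown in RPMI-1640 with 10% FBS were seeded at 1×10^4/well (MV4-11), 5×10^3 (OVCAR-3) or 1×10^3 (A2780), then dosed 24 h later with compound at 0.0015 uM to 10 uM, DMSO <0.1%. Viability was read by CellTiter-Glo luminescence after 72 h at 37° C, in duplicate.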

A2780 = A2780 viability assay (CellTiter-Glo, 72 hours); conditions: Homo sapiens; A2780 cells
Method in brief: as §1

MV4-11 = experiment: Cellular MV4-11 viability assay (CellTiter-Glo, 72 hours); conditions: Homo sapiens; MV4-11 cells
Method in brief: as §1

Measured: IC50

CC(C)c1cnn2c(NCc3ccccc3-c3nccc4cc(NC(=O)/C=C/CN(C)C)ccc34)nc(N3CCC(N)CC3)nc12 [Compound 11]
< 1000 nM: all assays above
